Legend:
GST-Bcl-2 = GST-Bcl-2 (Homo sapiens, UniProt P10415); test: TR-FRET Bcl-2 binding assay (F-Bak peptide probe); conditions: GST-Bcl-2 1 nM, F-Bak peptide probe 100 nM, Tb-anti-GST 1 nM; Wang's equation; '<' = below limit of detection
Experimental: Determination of the utility of compounds of this invention as binders to and inhibitors of anti-apoptotic Bcl-2 proteins was performed using the Time Resolved-Fluorescence Resonance Energy Transfer (TR-FRET) Assay. Tb-anti-GST antibody was purchased from Invitrogen (Catalog No. PV4216).
Representative compounds were serially diluted in dimethyl sulfoxide (DMSO) starting at 50 μM (2× starting concentration; 10% DMSO) and 10 μL were transferred into a 384-well plate. The samples are then mixed on a shaker for 1 minute and incubated for an additional 3 hours at room temperature. For each assay, the probe/antibody and protein/probe/antibody were included on each assay plate as negative and positive controls, respectively. Fluorescence was measured on the Envision (Perkin Elmer) using a 340/35 nm excitation filter and 520/525 (F-Bak peptide) and 495/510 nm (Tb-labeled […] antibody) emission filters. Dissociation constants (Ki) are shown in TABLE 2 below and were determined using Wang's equation (Wang Z.-X., An Exact Mathematical Expression For Describing Competitive Binding Of Two Different Ligands To A Protein Molecule. FEBS Lett. 1995, 360:111-4).
The samples were then mixed on a shaker for 1 minute and incubated for an additional 3 hours at room temperature. For each assay, the probe/antibody and protein/probe/antibody were included on each assay plate as negative and positive controls, respectively. Fluorescence was measured on the Envision (Perkin Elmer) using a 340/35 nm excitation filter and 520/525 (F-Bak peptide) and 495/510 nm (Tb-labeled anti-Histidine antibody) emission filters.
Inhibition constants (Ki) for compounds were determined using Wang's equation (Wang Zx. An Exact Mathematical Expression For Describing Competitive Binding Of Two Different Ligands To A Protein Molecule. FEBS Lett. 1995, 360:111-4).
The inhibition constant (Ki) is the dissociation constant of an enzyme-inhibitor complex or a protein/small molecule complex, wherein the small molecule is inhibiting binding of one protein to another protein or peptide. So a large Ki value indicates a low binding affinity and a small Ki value indicates a high binding affinity. […] The compounds are therefore expected to have utility in treatment of diseases during which anti-apoptotic Bcl-2 protein is expressed. Biological Data

RS4;11 cells = test: RS4;11 cell viability assay (CellTiter Glo); assay type: cell-based; conditions: 10% human serum, 48 hours
Excerpt: The acute lymphoblastic leukemia (ALL) cell line RS4;11 was used as the primary human cell line to assess the cellular activity of Bcl-2 selective agents in vitro and their efficacy in vivo. Previous studies have shown by BH3 profiling, a mitochondrial assay that classifies blocks in the intrinsic apoptotic pathway, that RS4;11 cells were highly dependant on BCL-2 for survival and sensitive to the Bcl-2 family member inhibitor ABT-737 (Blood, 2008, Vol. 111, 2300-2309).
RS4;11 cells were cultured in RPMI-1640 supplemented with 2 mM L-glutamine, 10% FBS, 1 mM sodium pyruvate, 2 mM HEPES, 1% penicillin/streptomycin (Invitrogen), 4.5 g/L glucose and maintained at 37 C containing 5% CO2. To test for the cellular activity of compounds in vitro, cells were treated at 50,000 cells per well in 96-well microtiter plates in the presence of 10% human serum for 48 hours in a humidified chamber with 5% CO2. Cell cytotoxicity EC50 values were assessed using CellTiter Glo (Promega) according to the manufacturer's recommendations. The EC50 values were determined as a percentage of viable cells following treatment compared to the untreated control cells.

Chain of GST-Bcl-2 (P10415 whole entry): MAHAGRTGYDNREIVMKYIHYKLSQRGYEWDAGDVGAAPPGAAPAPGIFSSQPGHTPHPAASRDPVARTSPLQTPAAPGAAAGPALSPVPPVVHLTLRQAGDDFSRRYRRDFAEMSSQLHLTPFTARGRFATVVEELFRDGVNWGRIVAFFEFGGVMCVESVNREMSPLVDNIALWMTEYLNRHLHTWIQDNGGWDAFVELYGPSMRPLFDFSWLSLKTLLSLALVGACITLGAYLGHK

Row | SMILES | Ki (GST-Bcl-2) | EC50 (RS4;11 cells)
1 | CC1(C)CCC(CN2CCN(c3ccc(C(=O)NS(=O)(=O)c4ccc(NC[C@H]5C[C@H](C#N)C5)c([N+](=O)[O-])c4)c(Oc4cnc5[nH]ccc5c4)c3)CC2)=C(c2ccc(Cl)cc2)C1 [Example 41, 4-(4-{[2-(4-chlorophenyl)-4,4-dimethylcyclohex-1-en-1-yl]methyl}piperazin-1-yl)-N-[(4-{[(trans-3-cyanocyclobutyl)methyl]amino}-3-nitrophenyl)sulfonyl]-2-(1H-pyrrolo[2,3-b]pyridin-5-yloxy)benzamide] | < 0.1 nM | 47 nM
2 | CC1(C)CCC(CN2CCN(c3ccc(C(=O)NS(=O)(=O)c4ccc(NC[C@H]5C[C@@H](C#N)C5)c([N+](=O)[O-])c4)c(Oc4cnc5[nH]ccc5c4)c3)CC2)=C(c2ccc(Cl)cc2)C1 [Example 42, 4-(4-{[2-(4-chlorophenyl)-4,4-dimethylcyclohex-1-en-1-yl]methyl}piperazin-1-yl)-N-[(4-{[(cis-3-cyanocyclobutyl)methyl]amino}-3-nitrophenyl)sulfonyl]-2-(1H-pyrrolo[2,3-b]pyridin-5-yloxy)benzamide] | < 0.1 nM | 56 nM
3 | CC1(C)CCC(CN2CCN(c3ccc(C(=O)NS(=O)(=O)c4ccc(NCC5CC(F)(F)C5)c([N+](=O)[O-])c4)c(Oc4cnc5[nH]ccc5c4)c3)CC2)=C(c2ccc(Cl)cc2)C1 [Example 28, 4-(4-{[2-(4-chlorophenyl)-4,4-dimethylcyclohex-1-en-1-yl]methyl}piperazin-1-yl)-N-[(4-{[(3,3-difluorocyclobutyl)methyl]amino}-3-nitrophenyl)sulfonyl]-2-(1H-pyrrolo[2,3-b]pyridin-5-yloxy)benzamide] | < 0.1 nM | 120 nM
4 | CC1(C)CCC(CN2CCN(c3ccc(C(=O)NS(=O)(=O)c4ccc(NC[C@H]5CC[C@]6(CCCO6)CC5)c([N+](=O)[O-])c4)c(Oc4cnc5[nH]ccc5c4)c3)CC2)=C(c2ccc(Cl)cc2)C1 [Example 4, 4-(4-{[2-(4-chlorophenyl)-4,4-dimethylcyclohex-1-en-1-yl]methyl}piperazin-1-yl)-N-[(3-nitro-4-{[(5S,8S)-1-oxaspiro[4.5]dec-8-ylmethyl]amino}phenyl)sulfonyl]-2-(1H-pyrrolo[2,3-b]pyridin-5-yloxy)benzamide] | < 0.1 nM | 57 nM
5 | CC1(C)CCC(CN2CCN(c3ccc(C(=O)NS(=O)(=O)c4ccc(NCC5(C)COC5)c([N+](=O)[O-])c4)c(Oc4cnc5[nH]ccc5c4)c3)CC2)=C(c2ccc(Cl)cc2)C1 [Example 38, 4-(4-{[2-(4-chlorophenyl)-4,4-dimethylcyclohex-1-en-1-yl]methyl}piperazin-1-yl)-N-[(4-{[(3-methyloxetan-3-yl)methyl]amino}-3-nitrophenyl)sulfonyl]-2-(1H-pyrrolo[2,3-b]pyridin-5-yloxy)benzamide] | < 0.1 nM | 30 nM
6 | CC1(C)CCC(CN2CCN(c3ccc(C(=O)NS(=O)(=O)c4ccc(NCC5CC[S+]([O-])CC5)c([N+](=O)[O-])c4)c(Oc4cnc5[nH]ccc5c4)c3)CC2)=C(c2ccc(Cl)cc2)C1 (stereo not shown) [Example 32, 4-(4-{[2-(4-chlorophenyl)-4,4-dimethylcyclohex-1-en-1-yl]methyl}piperazin-1-yl)-N-[(3-nitro-4-{[(1-oxidotetrahydro-2H-thiopyran-4-yl)methyl]amino}phenyl)sulfonyl]-2-(1H-pyrrolo[2,3-b]pyridin-5-yloxy)benzamide] | < 0.1 nM | 43 nM
7 | CC1(C)CCC(CN2CCN(c3ccc(C(=O)NS(=O)(=O)c4ccc(N5CCOCC5)c([N+](=O)[O-])c4)c(Oc4cnc5[nH]ccc5c4)c3)CC2)=C(c2ccc(Cl)cc2)C1 [Example 8, 4-(4-{[2-(4-chlorophenyl)-4,4-dimethylcyclohex-1-en-1-yl]methyl}piperazin-1-yl)-N-{[4-(morpholin-4-yl)-3-nitrophenyl]sulfonyl}-2-(1H-pyrrolo[2,3-b]pyridin-5-yloxy)benzamide] | 0.7 nM | > 1000 nM
8 | CC1(C)CCC(CN2CCN(c3ccc(C(=O)NS(=O)(=O)c4ccc(NC[C@H]5CCOC(C)(C)C5)c([N+](=O)[O-])c4)c(Oc4cnc5[nH]ccc5c4)c3)CC2)=C(c2ccc(Cl)cc2)C1 [Example 33, 4-(4-{[2-(4-chlorophenyl)-4,4-dimethylcyclohex-1-en-1-yl]methyl}piperazin-1-yl)-N-{[4-({[(4S)-2,2-dimethyltetrahydro-2H-pyran-4-yl]methyl}amino)-3-nitrophenyl]sulfonyl}-2-(1H-pyrrolo[2,3-b]pyridin-5-yloxy)benzamide] | < 0.1 nM | 44 nM
9 | CC1(C)CCC(CN2CCN(c3ccc(C(=O)NS(=O)(=O)c4ccc(NCC5(CO)COC5)c([N+](=O)[O-])c4)c(Oc4cnc5[nH]ccc5c4)c3)CC2)=C(c2ccc(Cl)cc2)C1 [Example 11, 4-(4-{[2-(4-chlorophenyl)-4,4-dimethylcyclohex-1-en-1-yl]methyl}piperazin-1-yl)-N-{[4-({[3-(hydroxymethyl)oxetan-3-yl]methyl}amino)-3-nitrophenyl]sulfonyl}-2-(1H-pyrrolo[2,3-b]pyridin-5-yloxy)benzamide] | < 0.1 nM | 15 nM
10 | CC1(C)CCC(CN2CCN(c3ccc(C(=O)NS(=O)(=O)c4ccc(NCC5CCOCC5)c([N+](=O)[O-])c4)c(Oc4cnc5[nH]ccc5c4)c3)CC2)=C(c2ccc(Cl)c(Cl)c2)C1 [Example 53, 4-(4-{[2-(3,4-dichlorophenyl)-4,4-dimethylcyclohex-1-en-1-yl]methyl}piperazin-1-yl)-N-({3-nitro-4-[(tetrahydro-2H-pyran-4-ylmethyl)amino]phenyl}sulfonyl)-2-(1H-pyrrolo[2,3-b]pyridin-5-yloxy)benzamide] | 0.2 nM | 46 nM
11 | CC1(C)CCC(CN2CCN(c3ccc(C(=O)NS(=O)(=O)c4ccc(NCC5CCS(=O)(=O)CC5)c([N+](=O)[O-])c4)c(Oc4cnc5[nH]ccc5c4)c3)CC2)=C(c2ccc(Cl)cc2)C1 [Example 43, 4-(4-{[2-(4-chlorophenyl)-4,4-dimethylcyclohex-1-en-1-yl]methyl}piperazin-1-yl)-N-[(4-{[(1,1-dioxidotetrahydro-2H-thiopyran-4-yl)methyl]amino}-3-nitrophenyl)sulfonyl]-2-(1H-pyrrolo[2,3-b]pyridin-5-yloxy)benzamide] | < 0.1 nM | 31 nM
12 | COC1(CNc2ccc(S(=O)(=O)NC(=O)c3ccc(N4CCN(CC5=C(c6ccc(Cl)cc6)CC(C)(C)CC5)CC4)cc3Oc3cnc4[nH]ccc4c3)cc2[N+](=O)[O-])COCCOC1 [Example 40, 4-(4-{[2-(4-chlorophenyl)-4,4-dimethylcyclohex-1-en-1-yl]methyl}piperazin-1-yl)-N-[(4-{[(6-methoxy-1,4-dioxepan-6-yl)methyl]amino}-3-nitrophenyl)sulfonyl]-2-(1H-pyrrolo[2,3-b]pyridin-5-yloxy)benzamide] | < 0.1 nM | 76 nM
13 | CC1(C)CCC(CN2CCN(c3ccc(C(=O)NS(=O)(=O)c4ccc(NCC5CCN(S(C)(=O)=O)CC5)c([N+](=O)[O-])c4)c(Oc4cnc5[nH]ccc5c4)c3)CC2)=C(c2ccc(Cl)cc2)C1 [Example 30, 4-(4-{[2-(4-chlorophenyl)-4,4-dimethylcyclohex-1-en-1-yl]methyl}piperazin-1-yl)-N-{[4-({[1-(methylsulfonyl)piperidin-4-yl]methyl}amino)-3-nitrophenyl]sulfonyl}-2-(1H-pyrrolo[2,3-b]pyridin-5-yloxy)benzamide] | < 0.1 nM | 27 nM
14 | C[C@H]1CO[C@@H](CNc2ccc(S(=O)(=O)NC(=O)c3ccc(N4CCN(CC5=C(c6ccc(Cl)cc6)CC(C)(C)CC5)CC4)cc3Oc3cnc4[nH]ccc4c3)cc2[N+](=O)[O-])CO1 [Example 45, 4-(4-{[2-(4-chlorophenyl)-4,4-dimethylcyclohex-1-en-1-yl]methyl}piperazin-1-yl)-N-{[4-({[(2S,5S)-5-methyl-1,4-dioxan-2-yl]methyl}amino)-3-nitrophenyl]sulfonyl}-2-(1H-pyrrolo[2,3-b]pyridin-5-yloxy)benzamide] | < 0.1 nM | 19 nM

— US10081628B2, “Apoptosis-inducing agents for the treatment of cancer and immune and autoimmune diseases” (AbbVie Inc., priority 2013, dated 2018)
